Active and inactive are the calls of the source. No cut-off for these calls is given here.
Legend:
MCF7 [1] = assay: Antiproliferative activity against human MCF7 cells expressing CYP1A1 assessed as cell growth inhibition incubated for 48 hrs by sulforhodamine B assay; type: functional, cell-based; details: MCF7, 48 h
HT-29 = assay: Antiproliferative activity against human HT-29 cells assessed as cell growth inhibition incubated for 48 hrs by sulforhodamine B assay; type: functional, cell-based; details: HT-29, 48 h
M21 = assay: Antiproliferative activity against human M21 cells assessed as cell growth inhibition incubated for 48 hrs by sulforhodamine B assay; type: functional, cell-based; details: M21, 48 h
[2] = Selectivity ratio, ratio of IC50 for antiproliferative activity against human HT-29 cells to IC50 for antiproliferative activity against human MCF7 cells expressing CYP1A1; type: functional
[3] = Selectivity ratio, ratio of IC50 for antiproliferative activity against human M21 cells to IC50 for antiproliferative activity against human MCF7 cells expressing CYP1A1; type: functional
[4] = Stability in human liver microsomes assessed as half life incubated for 60 mins by HPLC analysis; type: ADME, Microsome
[5] = Stability in mouse liver microsomes assessed as half life incubated for 60 mins by HPLC analysis; type: ADME, Microsome
[6] = Stability in rat liver microsomes assessed as half life incubated for 60 mins by HPLC analysis; type: ADME, Microsome
[7] = Stability in human liver microsomes assessed as intrinsic clearance incubated for 60 mins by HPLC analysis; type: ADME, Microsome; details: read-out: CLH
[8] = Stability in mouse liver microsomes assessed as intrinsic clearance incubated for 60 mins by HPLC analysis; type: ADME, Microsome; details: read-out: CLH
[9] = Stability in rat liver microsomes assessed as intrinsic clearance incubated for 60 mins by HPLC analysis; type: ADME, Microsome; details: read-out: CLH
Cytochrome P450 1A1 [10] = molecular target: T1, Cytochrome P450 1A1 (Homo sapiens, UniProt P04798); assay: Binding affinity to human CYP1A1 assessed as inhibition of conversion of 7-ethoicyresorufin into fluorescent resorufin by measuring inhibition constant preincubated for 5 mins followed by […] addition measured every minute for 15 mins by EROD assay; type: ADME
T1 sequence (P04798 whole entry): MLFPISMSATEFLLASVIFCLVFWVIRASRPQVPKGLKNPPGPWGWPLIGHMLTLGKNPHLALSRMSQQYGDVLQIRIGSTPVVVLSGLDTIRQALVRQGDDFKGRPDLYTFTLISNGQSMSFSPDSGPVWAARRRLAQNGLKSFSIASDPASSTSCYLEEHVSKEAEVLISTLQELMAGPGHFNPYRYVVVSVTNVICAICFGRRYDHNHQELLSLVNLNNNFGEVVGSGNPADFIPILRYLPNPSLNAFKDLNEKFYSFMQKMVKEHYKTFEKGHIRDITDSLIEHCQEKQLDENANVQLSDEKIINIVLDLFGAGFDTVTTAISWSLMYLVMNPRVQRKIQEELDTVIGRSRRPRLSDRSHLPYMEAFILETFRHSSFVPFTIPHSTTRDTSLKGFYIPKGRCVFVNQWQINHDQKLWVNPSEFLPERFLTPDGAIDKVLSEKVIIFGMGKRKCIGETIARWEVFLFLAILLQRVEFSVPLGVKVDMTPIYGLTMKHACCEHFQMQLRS

HT-1080 [11] = assay: Antiproliferative activity against human HT-1080 cells expressing CYP1A1 assessed as cell growth inhibition incubated for 48 hrs by sulforhodamine B assay; type: functional, cell-based; details: HT-1080, 48 h
HT-1080 [12] = assay: Antiproliferative activity against human HT-1080 cells transfected with empty vector assessed as cell growth inhibition incubated for 48 hrs by sulforhodamine B assay; type: functional, cell-based; details: HT-1080, 48 h
HT-1080 [13] = assay: Antiproliferative activity against human HT-1080 cells assessed as cell growth inhibition incubated for 48 hrs by sulforhodamine B assay; type: functional, cell-based; details: HT-1080, 48 h
[14] = Selectivity ratio, ratio of IC50 for antiproliferative activity against human HT-1080 cells transfected with empty vector to IC50 for antiproliferative activity against human HT-1080 cells expressing CYP1A1; type: functional
[15] = Selectivity ratio, ratio of IC50 for antiproliferative activity against human HT-1080 cells to IC50 for antiproliferative activity against human HT-1080 cells expressing CYP1A1; type: functional
MDA-MB-231 = assay: Antiproliferative activity against ER/PR/HER2-negative human MDA-MB-231 cells assessed as cell growth inhibition incubated for 72 hrs by sulforhodamine B assay; type: functional, cell-based; details: MDA-MB-231, 72 h
MDA-MB-468 = assay: Antiproliferative activity against ER/PR/HER2-negative human MDA-MB-468 cells assessed as cell growth inhibition incubated for 72 hrs by sulforhodamine B assay; type: functional, cell-based; details: MDA-MB-468, 72 h
T47D = assay: Antiproliferative activity against ER/PR-positive HER2-negative human T47D cells assessed as cell growth inhibition incubated for 72 hrs by sulforhodamine B assay; type: functional, cell-based
SK-BR-3 = assay: Antiproliferative activity against ER/PR-negative HER2-positive human SK-BR-3 cells assessed as cell growth inhibition incubated for 72 hrs by sulforhodamine B assay; type: functional, cell-based; details: SK-BR-3, 72 h
MCF7 [16] = assay: Antiproliferative activity against […] human MCF7 cells assessed as cell growth inhibition incubated for 72 hrs by sulforhodamine B assay; type: functional, cell-based; details: MCF7, 72 h
[17] = Selectivity ratio, ratio of IC50 for antiproliferative activity against ER/PR/HER2-negative human MDA-MB-231 cells to IC50 for antiproliferative activity against ER/PR/HER2-negative human MDA-MB-468 cells; type: functional
[18] = Selectivity ratio, ratio of IC50 for antiproliferative activity against ER/PR/HER2-negative human MDA-MB-231 cells to IC50 for antiproliferative activity against ER/PR-positive HER2-negative human T47D cells; type: functional
[19] = Selectivity ratio, ratio of IC50 for antiproliferative activity against ER/PR/HER2-negative human MDA-MB-231 cells to IC50 for antiproliferative activity against ER/PR-negative HER2-positive human SK-BR-3 cells; type: functional
[20] = Selectivity ratio, ratio of IC50 for antiproliferative activity against ER/PR/HER2-negative human MDA-MB-231 cells to IC50 for antiproliferative activity against […] human MCF7 cells; type: functional
MCF7 [21] = assay: Induction of cell cycle arrest in human MCF7 cells expressing CYP1A1 assessed as accumulation of cells at G2/M phase at 1250 nM incubated for 48 hrs by DAPI staining based flow cytometric analysis (reference value: 16+/-2 %); type: functional
MCF7 [22] = assay: Induction of cell cycle arrest in human MCF7 cells expressing CYP1A1 assessed as accumulation of cells at S phase at 1250 nM incubated for 48 hrs by DAPI staining based flow cytometric analysis (reference value: 11+/-1 %); type: functional
MCF7 [23] = assay: Induction of cell cycle arrest in human MCF7 cells expressing CYP1A1 assessed as accumulation of cells at G0/G1 phase at 1250 nM incubated for 48 hrs by DAPI staining based flow cytometric analysis (reference value: 74+/-2 %); type: functional
Tubulin (Homo sapiens) [24] = molecular target: T2, Tubulin (Homo sapiens) (UniProt P68371+Q9H4B7+P0DPH7+P68366+Q13509+Q71U36+P04350+Q3ZCM7+P07437+P68363+Q9BQE3+Q6PEY2+Q13885+Q9BVA1+Q9BUF5); assay: Disruption of microtubules in human MCF7 cells expressing CYP1A1 assessed as cytoskeleton disruption at 1250 nM measured after 48 hrs by DAPI staining based fluorescence microscopic analysis; type: cell-based
HT-1080 [25] = assay: Antitumor activity against human HT-1080 cells xenografted in chick embryo assessed as reduction in tumor wet weight at 1 ug, iv incubated for 17 days by CAM assay; type: functional; parameters: scale not given: the % may be the effect or the level left; details: dose 1 µg, time 17 day
HT-1080 [26] = assay: Antitumor activity against human HT-1080 cells transfected with empty vector xenografted in chick embryo assessed as reduction in tumor wet weight at 1 ug, iv incubated for 17 days by CAM assay; type: functional; parameters: scale not given: the % may be the effect or the level left; details: dose 1 µg, time 17 day
HT-1080 [27] = assay: Antitumor activity against human HT-1080 cells expressing CYP1A1 xenografted in chick embryo assessed as reduction in tumor wet weight at 1 ug, iv incubated for 17 days by CAM assay; type: functional; parameters: scale not given: the % may be the effect or the level left; details: dose 1 µg, time 17 day
[28] = Toxicity in chick embryo xenografted with human […] cells assessed as mortality at 1 ug, iv incubated for 17 days; type: organism-based, Gallus gallus; details: chicken, in vivo, 408 h, dose 1 µg, time 17 day
[29] = Toxicity in chick embryo xenografted with human […] cells transfected with empty vector assessed as mortality at 1 ug, iv incubated for 17 days; type: organism-based, Gallus gallus; details: chicken, in vivo, 408 h, dose 1 µg, time 17 day
[30] = Toxicity in chick embryo xenografted with human […] cells expressing CYP1A1 assessed as mortality at 1 ug, iv incubated for 17 days; type: organism-based, Gallus gallus; details: chicken, in vivo, 408 h, dose 1 µg, time 17 day
Cytochrome P450 1A1 [31] = molecular target: T1, Cytochrome P450 1A1; assay: Prodrug conversion assessed as human CYP1A1-mediated CEU-699 formation incubated for 15 mins in presence of NADPH by HPLC analysis; type: ADME; details: recombinant enzyme, 0.25 h
MCF7 [32] = assay: Induction of cell cycle arrest in human MCF7 cells expressing CYP1A1 assessed as accumulation of cells at G2/M phase at 50 nM incubated for 48 hrs by DAPI staining based flow cytometric analysis (reference value: 16+/-2 %); type: functional
MCF7 [33] = assay: Induction of cell cycle arrest in human MCF7 cells expressing CYP1A1 assessed as accumulation of cells at S phase at 50 nM incubated for 48 hrs by DAPI staining based flow cytometric analysis (reference value: 11+/-1 %); type: functional
MCF7 [34] = assay: Induction of cell cycle arrest in human MCF7 cells expressing CYP1A1 assessed as accumulation of cells at G0/G1 phase at 50 nM incubated for 48 hrs by DAPI staining based flow cytometric analysis (reference value: 74+/-2 %); type: functional
Tubulin (Homo sapiens) [35] = molecular target: T2, Tubulin (Homo sapiens); assay: Disruption of microtubules in human MCF7 cells expressing CYP1A1 assessed as cytoskeleton disruption at 840 nM measured after 48 hrs by DAPI staining based fluorescence microscopic analysis; type: cell-based
Cytochrome P450 1A1 [36] = molecular target: T1, Cytochrome P450 1A1; assay: Prodrug conversion assessed as human CYP1A1-mediated CEU-602 formation incubated for 15 mins in presence of NADPH by HPLC analysis; type: ADME; details: recombinant enzyme, 0.25 h

| Compound | IC50 (MCF7 [1]) [µM] | IC50 (HT-29) [µM] | IC50 (M21) [µM] | Ratio IC50 [2] | Ratio IC50 [3] | half-life [4] [h] | half-life [5] [h] | half-life [6] [h] | microsomal CLint [7] [µL/min/mg] | microsomal CLint [8] [µL/min/mg] | microsomal CLint [9] [µL/min/mg] | Ki (Cytochrome P450 1A1 [10]) [µM] | IC50 (HT-1080 [11]) [µM] | IC50 (HT-1080 [12]) [µM] | IC50 (HT-1080 [13]) [µM] | Ratio IC50 [14] | Ratio IC50 [15] | IC50 (MDA-MB-231) [µM] | IC50 (MDA-MB-468) [µM] | IC50 (T47D) [µM] | other results |
| --- | --- | --- | --- | --- | --- | --- | --- | --- | --- | --- | --- | --- | --- | --- | --- | --- | --- | --- | --- | --- | --- |
| CCCCCN1CCN(c2ccc(S(=O)(=O)Oc3cc(OC)cc(OC)c3)cc2)C1=O | 0.6 | > 12.5 | > 12.5 | >21 | >21 | 1.17 | 0.733 | 1.78 | 20 | 32 | 13 | 0.23 | 0.5 | 8.8 | 6.8 | 18 | 14 | > 12.5 | 0.21 | 1.1 | IC50 (SK-BR-3): 0.079 µM; IC50 (MCF7 [16]): 0.043 µM; Ratio IC50 [17]: >60; Ratio IC50 [18]: >11; Ratio IC50 [19]: >160; Ratio IC50 [20]: >290; Activity (MCF7 [21]): 57%; Activity (MCF7 [22]): 11%; Activity (MCF7 [23]): 32%; Activity (Tubulin (Homo sapiens) [24]): Active; Activity (HT-1080 [25]): 86%; Activity (HT-1080 [26]): 87%; Activity (HT-1080 [27]): 71%; Activity [28]: Non-Toxic; Activity [29]: Non-Toxic; Activity [30]: Non-Toxic; Drug metabolism (Cytochrome P450 1A1 [31]): Metabolite_Detected |
| CCCCCN1CCN(c2ccc(S(=O)(=O)Oc3cc(OC)c(OC)c(OC)c3)cc2)C1=O | 0.2 | > 12.5 | > 12.5 | >63 | >63 | 0.95 | 0.315 | 2.08 | 24.3 | 74 | 11.1 | 1.4 | 0.03 | 5.9 | 4.44 | 197 | 148 | 8.6 | 0.021 | 1 | IC50 (SK-BR-3): 0.0032 µM; IC50 (MCF7 [16]): 0.038 µM; Ratio IC50 [17]: 410; Ratio IC50 [18]: 8.6; Ratio IC50 [19]: 2700; Ratio IC50 [20]: 230; Activity (MCF7 [32]): 42%; Activity (MCF7 [33]): 14%; Activity (MCF7 [34]): 44%; Activity (Tubulin (Homo sapiens) [35]): Active; Activity (HT-1080 [25]): 82%; Activity (HT-1080 [26]): 93%; Activity (HT-1080 [27]): 62%; Activity [28]: Non-Toxic; Activity [29]: Non-Toxic; Activity [30]: Non-Toxic; Drug metabolism (Cytochrome P450 1A1 [36]): Metabolite_Detected |

Reference: ChEMBL document CHEMBL5316344, “Homologation of the Alkyl Side Chain of Antimitotic Phenyl 4-(2-Oxo-3-alkylimidazolidin-1-yl)benzenesulfonate Prodrugs Selectively Targeting CYP1A1-Expressing Breast Cancers Improves Their Stability in Rodent Liver Microsomes” (J Med Chem, 2023)
